≈ marks a conversion by molar mass, not a printed value. Non-standard residues stand in square brackets, D forms with d. Residues, ends and D or L forms follow the SMILES beside them. No end group written: not given here.
Legend:
[1] = tested on: human red blood cells; test: Hemolysis assay, minimum hemolytic concentration; conditions: for Haemolysis on hRBC, MHC: 2.5% human red blood cells (final) in 10 mM phosphate, 150 mM NaCl, pH 7.4, 25 °C, 4 h, visual inspection; for MHC human red blood cells: supplement CSV
[2] = tested on: K. pneumoniae NCTC 418; test: microbe, parasite or virus in culture; conditions: for MIC K. pneumoniae, 12.5% MHB / MIC K. pneumoniae, Full MHB: K. pneumoniae NCTC 418, 16–20 h at 37 °C; for MIC K. pneumoniae, 12.5% MHB: 12.5% Müller–Hinton medium; for MIC K. pneumoniae, Full MHB: full Müller–Hinton medium; for MIC K. pneumoniae NCTC418: supplement CSV
Summary of the method: (§1)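 Read-out was visible growth after MTT addition, the MIC being the lowest inhibitory peptide concentration. Bacteria grown to log phase in LB were exposed in MH medium to peptide from 64 μg/mL in twofold dilutions for 15-18h at 37°C.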

[3] = tested on: S. aureus COL (MRSA); test: microbe, parasite or virus in culture; conditions: for MIC S. aureus, 12.5% MHB / MIC S. aureus, Full MHB: S. aureus COL (MRSA), 16–20 h at 37 °C; for MIC S. aureus, 12.5% MHB: 12.5% Müller–Hinton medium; for MIC S. aureus, Full MHB: full Müller–Hinton medium; for MIC S. aureus COL (MRSA): supplement CSV
Summary of the method: as §1

[4] = tested on: P. aeruginosa PAO1; test: microbe, parasite or virus in culture; conditions: for MIC P. aeruginosa, 12.5% MHB / MIC P. aeruginosa, Full MHB: P. aeruginosa PAO1, 16–20 h at 37 °C; for MIC P. aeruginosa, 12.5% MHB: 12.5% Müller–Hinton medium; for MIC P. aeruginosa, Full MHB: full Müller–Hinton medium; for MIC P. aeruginosa PAO1: supplement CSV
Summary of the method: as §1

[5] = tested on: E. coli W3110; test: microbe, parasite or virus in culture; conditions: for MIC E. coli, 12.5% MHB / MIC E. coli, Full MHB: E. coli W3110, 16–20 h at 37 °C, broth microdilution; for MIC E. coli, 12.5% MHB: 12.5% Müller–Hinton medium; for MIC E. coli, Full MHB: full Müller–Hinton medium; for MIC E. coli W3110: supplement CSV
Summary of the method: as §1

[6] = tested on: A. baumannii ATCC19606; test: microbe, parasite or virus in culture; conditions: for MIC A. baumannii, 12.5% MHB / MIC A. baumannii, Full MHB: A. baumannii ATCC19606, 16–20 h at 37 °C; for MIC A. baumannii, 12.5% MHB: 12.5% Müller–Hinton medium; for MIC A. baumannii, Full MHB: full Müller–Hinton medium; for MIC A. baumannii ATCC19606: supplement CSV
Summary of the method: as §1

Row | Compound | Haemolysis on hRBC, MHC [1] [µg/mL] | MHC human red blood cells [1] [µg/mL] | MIC K. pneumoniae, 12.5% MHB [2] [µg/mL] | MIC K. pneumoniae, Full MHB [2] [µg/mL] | MIC K. pneumoniae NCTC418 ([2]; 12.5% MH pH 7.4) [µg/mL] | MIC K. pneumoniae NCTC418 ([2]; full MH pH 7.4) [µg/mL] | MIC S. aureus, 12.5% MHB [3] | MIC S. aureus, Full MHB [3] | MIC S. aureus COL (MRSA) ([3]; 12.5% MH pH 7.4) [µg/mL] | MIC S. aureus COL (MRSA) ([3]; full MH pH 7.4) [µg/mL] | MIC P. aeruginosa, 12.5% MHB [4] [µg/mL] | MIC P. aeruginosa, Full MHB [4] [µg/mL] | MIC P. aeruginosa PAO1 ([4]; 12.5% MH pH 7.4) [µg/mL] | MIC P. aeruginosa PAO1 ([4]; full MH pH 7.4) [µg/mL] | MIC E. coli, 12.5% MHB [5] [µg/mL] | MIC E. coli, Full MHB [5] [µg/mL] | MIC E. coli W3110 ([5]; 12.5% MH pH 7.4) [µg/mL] | MIC E. coli W3110 ([5]; full MH pH 7.4) [µg/mL] | MIC A. baumannii, 12.5% MHB [6] [µg/mL] | MIC A. baumannii, Full MHB [6] [µg/mL] | further results
1 | VDKPPYLPRPRPPRRIYNR [sr6Cterm-Onc] (VDKPPYLPRPRPPRRIYNR-NH2; also: residues 14-19 stereorandomized (1:1 L/D mixture)) | >1000 | >1000 | 1 | 4 | 1 | 4 | > 16 µg/mL | > 64 µg/mL | >16 | >64 | 4 | 64 | 4 | 64 | 1 | 8 | 1 | 8 | 4 | 32 | MIC A. baumannii ATCC19606 ([6]; 12.5% MH pH 7.4): 4 µg/mL; MIC A. baumannii ATCC19606 ([6]; full MH pH 7.4): 32 µg/mL
2 | VDKPPYLPRPRPPRRIYNR [sr3Nterm-Onc] (VDKPPYLPRPRPPRRIYNR-NH2; also: residues 1-3 stereorandomized (1:1 L/D mixture)) | >1000 | >1000 | 2 | 16 | 2 | 16 | >64 / 64 μg/mL | >64 / 64 μg/mL | 64 | >64 | 16 | > 64 | 16 | >64 | 2 | 16 | 2 | 16 | 8 | 64 | MIC A. baumannii ATCC19606 ([6]; 12.5% MH pH 7.4): 8 µg/mL; MIC A. baumannii ATCC19606 ([6]; full MH pH 7.4): 64 µg/mL
3 | VDKPPYLPRPRPPRRIYNR [sr3N5Cterm-Onc] (VDKPPYLPRPRPPRRIYNR-NH2; also: residues 1-3 and 15-19 stereorandomized (1:1 L/D mixture)) | >1000 | >1000 | 1 | 16 | 1 | 16 | >64 / 64 μg/mL | >64 / 64 μg/mL | 64 | >64 | 8 | > 64 | 8 | >64 | 1 | 8 | 1 | 8 | 4 | 32 | MIC A. baumannii ATCC19606 ([6]; 12.5% MH pH 7.4): 4 µg/mL; MIC A. baumannii ATCC19606 ([6]; full MH pH 7.4): 32 µg/mL
4 | CC[C@H](C)[C@H](NC(=O)[C@H](CCCNC(=N)N)NC(=O)[C@H](CCCNC(=N)N)NC(=O)[C@@H]1CCCN1C(=O)[C@@H]1CCCN1C(=O)[C@H](CCCNC(=N)N)NC(=O)[C@@H]1CCCN1C(=O)[C@H](CCCNC(=N)N)NC(=O)[C@@H]1CCCN1C(=O)[C@H](CC(C)C)NC(=O)[C@H](Cc1ccc(O)cc1)NC(=O)[C@@H]1CCCN1C(=O)[C@H]1CCCN1C(=O)[C@H](CCCCN)NC(=O)[C@H](CC(=O)O)NC(=O)[C@@H](N)C(C)C)C(=O)N[C@@H](Cc1ccc(O)cc1)C(=O)N[C@@H](CC(N)=O)C(=O)N[C@@H](CCCNC(=N)N)C(N)=O [DP4-Onc] (H-VDK[dP]PYLPRPRPPRRIYNR-NH2) | >1000 | >1000 | 4 (≈ 1.67 µM) | 32 (≈ 13.4 µM) | 4 (≈ 1.67 µM) | 32 (≈ 13.4 µM) | >64 / 64 μg/mL | >64 / 64 μg/mL | 64 (≈ 26.8 µM) | >64 | > 16 | > 64 | >16 | >64 | 4 (≈ 1.67 µM) | 16 (≈ 6.69 µM) | 4 (≈ 1.67 µM) | 16 (≈ 6.69 µM) | 8 (≈ 3.35 µM) | 64 (≈ 26.8 µM) | MIC A. baumannii ATCC19606 ([6]; 12.5% MH pH 7.4): 8 µg/mL (≈ 3.35 µM); MIC A. baumannii ATCC19606 ([6]; full MH pH 7.4): 64 µg/mL (≈ 26.8 µM)

Source: publication PMC11571207, “Stereorandomized Oncocins with Preserved Ribosome Binding and Antibacterial Activity” (Journal of Medicinal Chemistry, 2024)
